The values that follow come from patent US9156830B2, “Heterocyclic compounds” (SHIONOGI & CO., LTD., priority 2011, dated 2015).

Usually IC50 stands for the point on the concentration scale where inhibition reaches its midpoint.

Test [1] concerns the target T1, Human TRPV1 (Homo sapiens (Human), UniProt Q8NER1). The test can be described thus: pH-Based Assay (Protocol 2), Ca2+ response in TRPV1/CHO cells. Particulars: pH 5.0-5.1 (H2SO4). The test is classed as cell-based. The procedure: The TRPV1/CHO cell line was generated as described below. The following assay was conducted to determine the concentration of sulfuric acid that would give rise to a pH that induces a […] response optimal to test compounds for their effect on TRPV1. […] For one half of a 96-well plate one agonist solution was used, for the other half the other agonist solution. The agonist solutions were obtained by diluting sulfuric acid (H2SO4, 1 M) with measuring buffer. The concentrations for the two agonist solutions were determined as described above in Section 2 of Protocol 2. The sulfuric acid concentrations between the two agonist solutions differed by 0.5 mM. […] The thereby-obtained solutions were further diluted in measuring buffer (1:100) as 10× stock serial dilutions with a DMSO concentration of 1%. 10 μL of a 10× stock was added into each well at step 3.3.(4) of Protocol 2. Thus, the final concentrations of antagonists ranged from 1000-0.977 nM containing 0.1% DMSO (FIG. 3B). […] (3) The cells were washed twice with 150 μL of measuring buffer (mentioned in 2.2.(3) of Protocol 2, no probenecid). The wells were subsequently refilled with 70 μL of measuring buffer. (4) Either 10 μL of measuring buffer or 10 μL of 10× stock serial dilution of test compound (described in 3.2. above) were applied to each well. Usually, only one test compound was tested per 96-well plate. The number of replicates per 96-well plate for a particular antagonist at a particular concentration was 7×2 since two different sulfuric acid concentrations were used per 96-well plate (N=7×2)(FIG. 3). Step (5) was the same as 2.2.(4) above. (6) Fura-2 fluorescent intensity was monitored as described in 2.2.(5) above. […] Steps (7) and (8) were as described in 2.2.(6) and 2.2.(7) above, respectively. […] FIG. 3) were measured one by one using a portable pH meter.

Test [2] has as its target T1, Human TRPV1. The test can be described thus: Capsaicin-Based Assay (Protocol 2), TRPV1/CHO cells. The test is classed as cell-based. The following applies: capsaicin 100 nM final. Here is the method:
The TRPV1/CHO cell line was generated as described below. […] Subsequently, the cells were loaded by incubation in 0.1 mL of wash buffer containing Fluo-4 at 3 μM final concentration. After 1 hour, the cells were washed twice with 0.2 mL wash buffer and resuspended in 0.1 mL wash buffer. The plates were then transferred to a Fluorescence Imaging Plate Reader (Molecular Devices). Fluorescence intensity was monitored for 15 seconds to establish a baseline. […] The final concentration of the compound was adjusted to range from 100 μM to 1.5625 μM. […] Data were collected over the entire time course and analyzed using Excel and the curve-fitting formula GraphPad Prism.

Where [3] appears, read: Fura-2, read-out: IC50 value by the pH-Based Assay.
Where [4] appears, read: Fluo-4, read-out: IC50 value by the Capsaicin-Based Assay.
Setting [5] is: Fura-2, read-out: TRPV1 IC50 Potency pH-Based Assay IC50.
[6] abbreviates: Fluo-4, read-out: TRPV1 IC50 Potency Capsaicin-Based Assay IC50.

T1 sequence (Q8NER1 whole entry): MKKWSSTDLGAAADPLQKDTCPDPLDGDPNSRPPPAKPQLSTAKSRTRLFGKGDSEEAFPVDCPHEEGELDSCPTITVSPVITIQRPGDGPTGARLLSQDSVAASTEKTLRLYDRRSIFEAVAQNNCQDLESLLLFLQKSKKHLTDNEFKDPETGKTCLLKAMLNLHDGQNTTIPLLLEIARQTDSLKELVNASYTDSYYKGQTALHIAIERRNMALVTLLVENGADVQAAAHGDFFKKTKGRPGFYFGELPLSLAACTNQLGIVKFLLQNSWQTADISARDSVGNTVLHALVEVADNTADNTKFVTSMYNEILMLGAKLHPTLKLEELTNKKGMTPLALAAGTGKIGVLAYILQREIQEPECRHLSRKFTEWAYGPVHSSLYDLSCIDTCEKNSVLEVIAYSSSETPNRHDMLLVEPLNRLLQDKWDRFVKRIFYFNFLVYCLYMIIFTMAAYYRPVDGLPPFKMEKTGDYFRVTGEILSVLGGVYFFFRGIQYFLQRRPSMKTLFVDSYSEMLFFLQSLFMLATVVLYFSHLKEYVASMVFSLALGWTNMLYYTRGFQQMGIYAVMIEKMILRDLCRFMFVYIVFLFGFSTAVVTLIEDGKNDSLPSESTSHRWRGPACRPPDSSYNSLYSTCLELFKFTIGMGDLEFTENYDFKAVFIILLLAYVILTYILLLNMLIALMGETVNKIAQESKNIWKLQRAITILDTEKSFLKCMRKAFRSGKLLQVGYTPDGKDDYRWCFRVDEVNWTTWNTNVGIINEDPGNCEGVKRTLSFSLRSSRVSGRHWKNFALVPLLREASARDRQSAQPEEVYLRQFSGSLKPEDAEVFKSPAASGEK

Regarding `O=C(Nc1ccc(C(F)(F)F)c(Cl)c1)N1CC=C(c2ccc(-c3nnc(CO)o3)cc2Cl)CC1` [Compound I-75, 4-(2-chloro-4-(5-(hydroxymethyl)-1,3,4-oxadiazol-2-yl)phenyl)-N-(3-chloro-4-(trifluoromethyl)phenyl)-5,6-dihydropyridine-1(2H)-carboxamide], the IC50 at Human TRPV1 [1] (setting [3]) and on Human TRPV1 [2] (setting [4]) was not above 0.1 µM throughout.
On to `Cc1cc(NC(=O)N2CCC(F)(c3ncc(-c4cc(CO)on4)cc3Cl)CC2)ccc1C(F)(F)F` [Compound I-54, 4-(3-chloro-5-(5-(hydroxymethyl)isoxazol-3-yl)pyridin-2-yl)-4-fluoro-N-(3-methyl-4-(trifluoromethyl)phenyl)piperidine-1-carboxamide], for which the IC50 on Human TRPV1 [1] (setting [3]) and at Human TRPV1 [2] (setting [4]) was not above 0.1 µM in each case.
Regarding `Cc1nnc(-c2cnc(C3=CCN(C(=O)Nc4ccc(C(C)(C)C)cc4)CC3)c(Cl)c2)o1` [Compound I-7], on Human TRPV1 [1] (setting [5]), the IC50 was determined as 0.0005 µM.
Turning to `O=C(Nc1ccc(C(F)(F)F)c(Cl)c1)N1CC=C(c2ncc(N3C[C@@H](O)[C@@H](O)C3=O)cc2Cl)CC1` [Compound I-71, N-(3-chloro-4-(trifluoromethyl)phenyl)-4-(3-chloro-5-((3R,4R)-3,4-dihydroxy-2-oxopyrrolidin-1-yl)pyridin-2-yl)-5,6-dihydropyridine-1(2H)-carboxamide], at Human TRPV1 [2] (setting [6]), the IC50 is 0.322 µM.
Turning to `O=C(Nc1ccc(C(F)(F)F)c(Cl)c1)N1CCC(F)(c2ncc(-c3cc(CO)on3)cc2Cl)CC1` [Compound I-52, N-(3-chloro-4-(trifluoromethyl)phenyl)-4-(3-chloro-5-(5-(hydroxymethyl)isoxazol-3-yl)pyridin-2-yl)-4-fluoropiperidine-1-carboxamide], the IC50 at Human TRPV1 [1] (setting [3]) and at Human TRPV1 [2] (setting [4]) was not above 0.1 µM each time.
In the case of `O=C(NCCNc1ncc(-c2nnc(CO)o2)cc1Cl)Nc1ccc(C(F)(F)F)c(Cl)c1` [Compound I-60, 1-(3-chloro-4-(trifluoromethyl)phenyl)-3-(2-(3-chloro-5-(5-(hydroxymethyl)-1,3,4-oxadiazol-2-yl)pyridin-2-ylamino)ethyl) urea], the IC50 at Human TRPV1 [2] (setting [6]) is 0.357 µM.
Turning to `Cc1cc(NC(=O)N2CC=C(c3ncc(-c4nnc(CO)o4)cc3C)CC2)ccc1C(F)(F)F` [Compound I-44, 4-(5-(5-(hydroxymethyl)-1,3,4-oxadiazol-2-yl)-3-methylpyridin-2-yl)-N-(3-methyl-4-(trifluoromethyl)phenyl)-5,6-dihydropyridine-1(2H)-carboxamide], the IC50 at Human TRPV1 [1] (setting [5]) was 0.001 µM; on Human TRPV1 [2] (setting [4]), not above 0.1 µM.
For the compound `O=C(Nc1ccc(C(F)(F)F)c(Cl)c1)N1CC=C(c2ncc(Cc3nnc(CO)o3)cc2Cl)CC1` [Compound I-77, N-(3-chloro-4-(trifluoromethyl)phenyl)-4-(3-chloro-5-((5-(hydroxymethyl)-1,3,4-oxadiazol-2-yl)methyl)pyridin-2-yl)-5,6-dihydropyridine-1(2H)-carboxamide], the IC50 at Human TRPV1 [2] (setting [6]) amounted to 0.0388 µM.
As for `O=C(C#Cc1ccc(-c2nnc(CO)o2)cc1Cl)Nc1ccc(C(F)(F)F)c(Cl)c1` [Compound I-81, 3-(2-chloro-4-(5-(hydroxymethyl)-1,3,4-oxadiazol-2-yl)phenyl)-N-(3-chloro-4-(trifluoromethyl)phenyl)propiolamide], the IC50 at Human TRPV1 [1] (setting [5]) turned out to be 0.0128 µM.
As for `O=C(Nc1ccc(C(F)(F)F)cn1)N1CCC(F)(c2ncc(-c3nc(CO)no3)cc2Cl)CC1` [Compound I-57, 4-(3-chloro-5-(3-(hydroxymethyl)-1,2,4-oxadiazol-5-yl)pyridin-2-yl)-4-fluoro-N-(5-(trifluoromethyl)pyridin-2-yl)piperidine-1-carboxamide], the IC50 at Human TRPV1 [2] (setting [6]) is 0.0166 µM.
On the same count and under the same terms, then `Cc1cc(-c2ccc(CO)o2)cnc1C1(F)CCN(C(=O)Nc2ccc(C(F)(F)F)c(Cl)c2)CC1` [Compound I-39, N-(3-chloro-4-(trifluoromethyl)phenyl)-4-fluoro-4-(5-(5-(hydroxymethyl)furan-2-yl)-3-methylpyridin-2-yl)piperidine-1-carboxamide], with 0.342 µM.
As for `O=C(Nc1ccc(C(F)(F)F)cn1)N1CCC(F)(c2ncc(-c3cc(CO)on3)cc2Cl)CC1` [Compound I-53, 4-(3-chloro-5-(5-(hydroxymethyl)isoxazol-3-yl)pyridin-2-yl)-4-fluoro-N-(5-(trifluoromethyl)pyridin-2-yl)piperidine-1-carboxamide], the IC50 on Human TRPV1 [1] (setting [3]) and on Human TRPV1 [2] (setting [4]) was not above 0.1 µM each time.
For the compound `Cc1cc(-c2nnc(CO)o2)cnc1C1=CCN(C(=O)Nc2ccc(C(F)(F)F)c(Cl)c2)CC1` [Compound I-43, N-(3-chloro-4-(trifluoromethyl)phenyl)-4-(5-(5-(hydroxymethyl)-1,3,4-oxadiazol-2-yl)-3-methylpyridin-2-yl)-5,6-dihydropyridine-1(2H)-carboxamide], the IC50 at Human TRPV1 [1] (setting [3]) and on Human TRPV1 [2] (setting [4]) was not above 0.1 µM throughout.
With `O=C(Nc1ccc(C(F)(F)F)c(Cl)c1)C1=CCN(c2ncc(-c3nnc(CO)o3)cc2Cl)CC1` [Compound I-67, N-(3-chloro-4-(thloro-5-(5-(hydroxymethyl)-1,3,4-oxadiazol-2-yl)pyridin-2-yl)-1,2,3,6-terifluoromethyl)phenyl)-1-(3-ctrahydropyridine-4-carboxamide], the IC50 on Human TRPV1 [1] (setting [3]) and on Human TRPV1 [2] (setting [4]) was not above 0.1 µM throughout.
Regarding `Cc1cc(NC(=O)N2CC=C(c3ccc(-c4nnc(CO)o4)cc3Cl)CC2)ccc1C(F)(F)F` [Compound I-76, 4-(2-chloro-4-(5-(hydroxymethyl)-1,3,4-oxadiazol-2-yl)phenyl)-N-(3-methyl-4-(trifluoromethyl)phenyl)-5,6-dihydropyridine-1(2H)-carboxamide], the IC50 is 0.0021 µM on Human TRPV1 [1] (setting [5]) and not above 0.1 µM at Human TRPV1 [2] (setting [4]).
Take `Cc1cc(NC(=O)N2CC=C(c3ncc(Cc4ncco4)cc3Cl)CC2)ccc1C(F)(F)F` [Compound I-80, 4-(3-chloro-5-(oxazol-2-ylmethyl)pyridin-2-yl)-N-(3-methyl-4-(trifluoromethyl)phenyl)-5,6-dihydropyridine-1(2H)-carboxamide]: the IC50 on Human TRPV1 [2] (setting [6]) is 0.223 µM.
Regarding `O=C(Nc1ccc(C(F)(F)F)c(Cl)c1)N1CC=C(c2ncc(-c3nnc(CCO)o3)cc2Cl)CC1` [Compound I-50, N-(3-chloro-4-(trifluoromethyl)phenyl)-4-(3-chloro-5-(5-(2-hydroxyethyl)-1,3,4-oxadiazol-2-yl)pyridin-2-yl)-5,6-dihydropyridine-1(2H)-carboxamide], the IC50 on Human TRPV1 [1] (setting [5]) came to 0.0608 µM.
